Results published in paper PMC8138939 (Clinical pharmacology and therapeutics, 2020).
Like-named read-outs stand apart in the source and are kept apart here. Marks after values point to notes of the source that are not given here. One block for each molecule: values may come before it.

Tests used:
plasma protein (AAG) = conditions: cited from earlier work; for fu, predominant plasma binding protein: AAG, ref [15],[16]
[1] = Adult sildenafil/DMS PBPK population simulations; parameters: species or system human
CYP3A4 [2] = target: T1, CYP3A4 (Homo sapiens, UniProt P08684); conditions: cited from earlier work
[3] = ref [46]; cited from earlier work
[4] = with vs without ritonavir; day 8; cited from earlier work
CYP3A7 [5] = target: T2, CYP3A7 (Homo sapiens, UniProt P24462); conditions: ref [18], cited from earlier work
CYP3A5 [6] = target: T3, CYP3A5 (Homo sapiens, UniProt P20815); conditions: cited from earlier work
[7] = cited from earlier work; for DMS AUC Observed / Sildenafil AUC Observed: geometric mean
CYP3A7 [8] = target: T2, CYP3A7; test: Fluconazole inhibition of 6β-hydroxytestosterone formation, recombinant CYP3A7; assay type: biochemical
CYP3A4 [9] = target: T1, CYP3A4; test: Fluconazole inhibition of 6β-hydroxytestosterone formation, recombinant CYP3A4; assay type: biochemical
CYP3A5 [10] = target: T3, CYP3A5; test: Fluconazole inhibition of 6β-hydroxytestosterone formation, recombinant CYP3A5; assay type: biochemical
phosphodiesterase type 5 = conditions: ref [37], cited from earlier work
[11] = PopPK, cited from earlier work
[12] = cited from earlier work; for sildenafil clearance (CL): 36 term neonates, i.v. sildenafil; for Sildenafil CL Observed / Sildenafil Vss Observed: PopPK typical value scaled to 70 kg
[13] = adults with pulmonary arterial hypertension; ref [44]; cited from earlier work
CYP2C9 = conditions: DMS formation, ref [12], cited from earlier work
CYP3A4/5/7 = conditions: read-out: KM CYP3A4/5/7 sink; remainder of sildenafil metabolites; fixed; ref [27]; cited from earlier work
[14] = children 1 to 17 years; low dose 10 mg in children > 20 kg; ref [24]; cited from earlier work

T2 sequence (P24462 whole entry): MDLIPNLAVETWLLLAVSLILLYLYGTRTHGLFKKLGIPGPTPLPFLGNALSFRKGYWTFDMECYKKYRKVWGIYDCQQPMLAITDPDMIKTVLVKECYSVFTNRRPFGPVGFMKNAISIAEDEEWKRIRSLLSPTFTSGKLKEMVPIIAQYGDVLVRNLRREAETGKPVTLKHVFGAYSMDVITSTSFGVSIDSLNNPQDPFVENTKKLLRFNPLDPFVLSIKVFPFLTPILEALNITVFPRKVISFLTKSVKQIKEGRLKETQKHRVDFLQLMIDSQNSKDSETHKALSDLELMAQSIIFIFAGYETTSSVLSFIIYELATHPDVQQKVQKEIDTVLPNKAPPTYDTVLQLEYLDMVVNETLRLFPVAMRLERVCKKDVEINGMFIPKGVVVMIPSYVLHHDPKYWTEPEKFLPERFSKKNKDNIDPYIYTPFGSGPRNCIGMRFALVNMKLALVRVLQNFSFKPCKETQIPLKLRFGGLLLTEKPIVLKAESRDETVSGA
T1 sequence (P08684 2-503 limits assumed): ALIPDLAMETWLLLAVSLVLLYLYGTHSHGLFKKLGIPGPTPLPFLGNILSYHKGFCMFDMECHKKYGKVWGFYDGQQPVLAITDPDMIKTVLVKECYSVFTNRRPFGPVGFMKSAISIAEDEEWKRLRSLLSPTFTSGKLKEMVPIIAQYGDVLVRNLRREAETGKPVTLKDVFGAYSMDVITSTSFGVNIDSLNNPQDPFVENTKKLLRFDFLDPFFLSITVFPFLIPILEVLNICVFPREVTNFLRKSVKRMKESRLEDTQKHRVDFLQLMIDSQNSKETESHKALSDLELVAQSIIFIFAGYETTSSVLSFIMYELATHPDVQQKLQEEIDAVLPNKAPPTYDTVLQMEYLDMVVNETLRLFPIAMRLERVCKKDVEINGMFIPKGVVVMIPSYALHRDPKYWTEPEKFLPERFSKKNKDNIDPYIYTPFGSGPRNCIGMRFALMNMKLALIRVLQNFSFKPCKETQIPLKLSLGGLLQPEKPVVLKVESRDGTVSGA
T3 sequence (P20815 whole entry): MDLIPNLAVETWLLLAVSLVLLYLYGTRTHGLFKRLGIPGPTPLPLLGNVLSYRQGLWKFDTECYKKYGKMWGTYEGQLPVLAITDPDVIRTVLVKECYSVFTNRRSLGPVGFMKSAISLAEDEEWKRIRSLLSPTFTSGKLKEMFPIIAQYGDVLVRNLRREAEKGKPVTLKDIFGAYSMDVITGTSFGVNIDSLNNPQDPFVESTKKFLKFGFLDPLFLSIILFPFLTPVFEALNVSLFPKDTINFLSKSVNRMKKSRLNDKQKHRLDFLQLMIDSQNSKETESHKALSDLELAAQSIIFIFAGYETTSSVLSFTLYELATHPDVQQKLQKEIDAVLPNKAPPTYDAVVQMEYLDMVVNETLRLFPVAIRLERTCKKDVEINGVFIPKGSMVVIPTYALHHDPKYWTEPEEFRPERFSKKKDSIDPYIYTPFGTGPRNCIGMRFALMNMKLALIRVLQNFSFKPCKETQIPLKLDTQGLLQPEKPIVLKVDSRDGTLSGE

DMS AUC Ratio simulated/observed ([1]; 25 mg sildenafil single oral dose): 1.01
DMS AUC Ratio simulated/observed ([1]; 50 mg sildenafil single oral dose): 0.94
DMS AUC Ratio simulated/observed ([1]; 100 mg sildenafil single oral dose): 0.85
DMS AUC Ratio simulated/observed ([1]; 200 mg sildenafil single oral dose): 0.79
DMS AUC Ratio simulated/observed ([1]; sildenafil 25 mg/25-minute infusion i.v.): 1.87
Structure (SMILES): CCCc1nn(C)c2c(=O)[nH]c(-c3cc(S(=O)(=O)N4CCNCC4)ccc3OCC)nc12 [DMS, N-desmethylsildenafil]
fu, predominant plasma binding protein (plasma protein (AAG)): 0.04 (AAG)
in vitro formation kinetic intrinsic clearance (CLint) for DMS (CYP3A4 [2]; CYP3A4, ref [18]): 0.733 μL/min/pmol CYP3A
Water solubility [3]: 419 µg/mL
pKa [3]: 7.16
DMS AUC0-24 Fold Change observed [4]: 1.7
in vitro formation kinetic intrinsic clearance (CLint) for DMS (CYP3A7 [5]; CYP3A7): 0.079 μL/min/pmol CYP3A
in vitro formation kinetic intrinsic clearance (CLint) for DMS (CYP3A5 [6]; CYP3A5, ref [18]): 0.788 μL/min/pmol CYP3A
DMS AUC Observed ([7]; 25 mg sildenafil single oral dose, AUC0–∞, ref [47]): 147 ng·h/mL
DMS AUC Observed ([7]; 50 mg sildenafil single oral dose, AUC0–∞, ref [47]): 328 ng·h/mL
DMS AUC Observed ([7]; 100 mg sildenafil single oral dose, AUC0–∞, ref [47]): 776 ng·h/mL
DMS AUC Observed ([7]; 200 mg sildenafil single oral dose, AUC0–∞, ref [47]): 1822 ng·h/mL
DMS AUC Observed ([7]; sildenafil 25 mg/25-minute infusion i.v., AUC0–∞, ref [13]): 147 ng·h/mL

Alpha (CYP3A7 [8]; mixed model, value (90% CI)): 13.5 (1.8–∞)
Inhibition type (CYP3A7 [8]; recombinant CYP3A7, testosterone probe): mixed competitive inhibitor
KI uncompetitive (CYP3A7 [8]; value (90% CI)): 389.0 (266.7–610.3) μM
Alpha (CYP3A4 [9]; mixed model, value (90% CI)): 16.6 (6.1–178)
Inhibition type (CYP3A4 [9]; recombinant CYP3A4, testosterone probe): mixed competitive inhibitor
KI uncompetitive (CYP3A4 [9]; value (90% CI)): 83.1 (67.4–102.9) μM
Ki (CYP3A5 [10]; KI competitive, value (90% CI)): 70.8 µM
Ki (CYP3A5 [10]; KI global, net value of mixed model, value (90% CI), triplicates): 182 µM
Alpha (CYP3A5 [10]; mixed model, value (90% CI)): 2.6 (0.5–13.9)
Inhibition type (CYP3A5 [10]; recombinant CYP3A5, testosterone probe): mixed competitive inhibitor
KI uncompetitive (CYP3A5 [10]; value (90% CI)): 238.7 (183.2–318.9) μM
Structure (SMILES): OC(Cn1cncn1)(Cn1cncn1)c1ccc(F)cc1F [Fluconazole, fluconazole]

Structure (SMILES): CCCc1nn(C)c2c(=O)[nH]c(-c3cc(S(=O)(=O)N4CCN(C)CC4)ccc3OCC)nc12 [Sildenafil, sildenafil]
fu, predominant plasma binding protein (plasma protein (AAG)): 0.04 (AAG)
protein binding of sildenafil (plasma protein (AAG); infants, ref [20]): 93.9%
unbound inhibition of in vitro phosphodiesterase type 5 activity (phosphodiesterase type 5; at steady-state Cmax 47 ng/mL): 53%
unbound inhibition of in vitro phosphodiesterase type 5 activity (phosphodiesterase type 5; at steady-state Cmax 140 ng/mL): 77%
unbound inhibition of in vitro phosphodiesterase type 5 activity (phosphodiesterase type 5; at steady-state Cmax 373 ng/mL): 90%
decrease in sildenafil clearance by fluconazole ([11]; 11 infants 2–121 days old, 3 with fluconazole, nasogastric tube, ref [20]): 47%
decrease in sildenafil CL by fluconazole ([11]; 34 preterm infants, 4 with fluconazole, ref [21]): 59%
Vmax CYP3A4 DMS (CYP3A4 [2]; DMS formation, ref [27]): 1.00 pmol/min/pmol
Km (CYP3A4 [2]; read-out: KM CYP3A4 DMS, DMS formation, ref [27]): 15 µM
sildenafil clearance (CL) ([12]; 7 days of age, ref [19]): 2.58 L/h
sildenafil clearance (CL) ([12]; day 1, ref [19]): 0.84 L/h
Sildenafil CL Observed ([12]; Preterm infants, ref [21]): 27.8 (33.3%)^b,e liters/hour
Sildenafil Vss Observed ([12]; Preterm infants, ref [21]): 144 (N/A)^b,e liters
Sildenafil CL Observed ([12]; Term neonates, ref [19]): 24.7 (54.7%)^b,f liters/hour
Sildenafil Vss Observed ([12]; Term neonates, ref [19]): 456 (N/A)^b,f liters
Vss in full-term neonates, not scaled ([12]; full-term neonates, ref [20]): 22.4 L
concentration of half-maximal effect, pulmonary vascular resistance [13]: 17 ng/mL
concentration that produces the maximal effect, pulmonary vascular resistance [13]: around 100 ng/mL
pKa [3]: 5.97
Vmax CYP2C9 DMS (CYP2C9): 78 pmol/min/mg
Km (CYP2C9; read-out: KM CYP2C9 DMS): 27 µM
Km (CYP3A7 [5]; read-out: KM CYP3A7 DMS, DMS formation): 5.71 µM
Km (CYP3A5 [6]; read-out: KM CYP3A5 DMS, DMS formation, ref [27]): 14.7 µM
Km (CYP3A4/5/7): 15 µM
Sildenafil AUC Observed ([7]; 10 mg i.v. bolus, adults with pulmonary arterial hypertension, AUC0–τ (8 hours), ref [49]): 330 ng·h/mL
Sildenafil AUC Observed ([7]; 25 mg single oral dose, healthy men, AUC0–∞, ref [47]): 361 ng·h/mL
Sildenafil AUC Observed ([7]; 25 mg/25-minute infusion i.v., healthy adult men, AUC0–∞, ref [13]): 971 ng·h/mL
Sildenafil AUC Observed ([7]; 50 mg single oral dose, healthy men, AUC0–∞, ref [47]): 738 ng·h/mL
Sildenafil AUC Observed ([7]; 50 mg/50-minute infusion i.v., healthy men, AUC0–∞, ref [47]): 1291 ng·h/mL
Sildenafil AUC Observed ([7]; 80 mg p.o. t.i.d. after 20 mg t.i.d. for 3 days, healthy men, AUC0–τ, ref [48]): 1720 ng·h/mL
Sildenafil AUC Observed ([7]; 100 mg single oral dose, healthy men, AUC0–∞, ref [47]): 1685 ng·h/mL
Sildenafil AUC Observed ([7]; 200 mg single oral dose, healthy men, AUC0–∞, ref [47]): 3755 ng·h/mL
Sildenafil CL Observed ([7]; Healthy adults, PopPK, mean (inter-individual variability), ref [50]): 29.5 (31.2%)^d liters/hour
Sildenafil Vss Observed ([7]; Healthy adults, PopPK, ref [50]): 107 (N/A)^d liters
Sildenafil CL Observed ([7]; Patients with PAH, 10 mg i.v. bolus, ref [49]): 32.2 (N/A)^c liters/hour
Sildenafil Vss Observed ([7]; Patients with PAH, reported as terminal phase volume (Vz), ref [49]): 137 (N/A)^c liters
efficacy of the low dose [14]: ineffective
